Columns and labels:
Assay in all cases: In vitro antifungal activity, microbroth dilution MIC
Assay type in all cases: cell-based
[1] = test system: Cryptococcus neoformans B. 42419; settings: 4 to 48 hours; for Minimal inhibitory concentration(MIC), Cry. neoformans B. 42419: RPMI-1640, 35° C., no growth observed
Outline: (§1)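 Broth microdilution adapted from NCCLS M27, in RPMI-1640 with 0.165 M MOPS, pH 7.0. Yeast or mould inoculum at 2×10^3 CFU/ml was mixed 1:1 with DMSO-derived compound solutions (200 to 0.10 μg/ml before mixing) and incubated at 35 °C for 4 to 48 h. MIC was the concentration showing no growth.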

[2] = test system: Trichophyton mentagrophytes A. 9129; settings: for Minimal inhibitory concentration(MIC), T. mentagrophytes A. 9129: RPMI-1640, 35° C., no growth observed
Outline: as §1

[3] = test system: Candida pseudotropicalis K. 11658; settings: 4 to 48 hours; for Minimal inhibitory concentration(MIC), C. pseudotropicalis K. 11658: RPMI-1640, 35° C., no growth observed
Outline: as §1

[4] = test system: Torulopsis glabrata B. 16205; settings: 4 to 48 hours; for Minimal inhibitory concentration(MIC), T. glabrata B. 16205: RPMI-1640, 35° C., no growth observed
Outline: as §1

[5] = test system: Candida albicans A. 10231; settings: 4 to 48 hours; for Minimal inhibitory concentration (MIC): C. albicans A. 10231, RPMI-1640, 35° C.; for Minimal inhibitory concentration(MIC), C. albicans A. 10231: RPMI-1640, 35° C., no growth observed
Outline: as §1

[6] = test system: Candida parapsitosis A. 7330; settings: 4 to 48 hours; for Minimal inhibitory concentration(MIC), C. parapsitosis A. 7330: RPMI-1640, 35° C., no growth observed
Outline: as §1

[7] = test system: Aspergillus furnigatus B. 19119; settings: for Minimal inhibitory concentration(MIC), A furnigatus B. 19119: RPMI-1640, 35° C., no growth observed
Outline: as §1

[8] = test system: Trichophyton mentagrophytes B. 32663; settings: for Minimal inhibitory concentration(MIC), T. mentagrophytes B. 32663: RPMI-1640, 35° C., no growth observed
Outline: as §1

[9] = test system: Candida albicans IFO. 1385; settings: 4 to 48 hours; for Minimal inhibitory concentration(MIC), C. albicans IFO. 1385: RPMI-1640, 35° C., no growth observed
Outline: as §1

Candida albicans C1-2 = settings: 4 to 48 hours; for Minimal inhibitory concentration (MIC): C. albicans C1-2, RPMI-1640, 35° C.; for Minimal inhibitory concentration(MIC), C. albicans C1-2: RPMI-1640, 35° C., no growth observed
Outline: as §1

[10] = test system: Cryptococcus neoformans IFM. 40092; settings: for Minimal inhibitory concentration(MIC), Cry. neoformans IFM. 40092: RPMI-1640, 35° C., no growth observed
Outline: as §1

[11] = test system: Candida tropicalis A. 13803; settings: 4 to 48 hours; for Minimal inhibitory concentration(MIC), C. tropicalis A. 13803: RPMI-1640, 35° C., no growth observed
Outline: as §1

[12] = test system: Cryptococcus neoformans A. 34144; settings: for Minimal inhibitory concentration(MIC), Cry. neoformans A. 34144: RPMI-1640, 35° C., no growth observed
Outline: as §1

Candida krusei K. 11655 = settings: 4 to 48 hours; for Minimal inhibitory concentration(MIC), C. krusei K. 11655: RPMI-1640, 35° C., no growth observed
Outline: as §1

[13] = test system: Aspergillus niger A. 16404; settings: for Minimal inhibitory concentration(MIC), A. niger A. 16404: RPMI-1640, 35° C., no growth observed
Outline: as §1

Minimal inhibitory concentration(MIC), Cry. neoformans B. 42419 [1] [µg/mL] | Minimal inhibitory concentration(MIC), T. mentagrophytes A. 9129 ([2]; 4 to 48 hours) [µg/mL] | Minimal inhibitory concentration(MIC), C. pseudotropicalis K. 11658 [3] [µg/mL] | Minimal inhibitory concentration(MIC), T. glabrata B. 16205 [4] [µg/mL] | Minimal inhibitory concentration (MIC) [5] [µg/mL] | Minimal inhibitory concentration(MIC), C. parapsitosis A. 7330 [6] [µg/mL] | Minimal inhibitory concentration(MIC), A furnigatus B. 19119 ([7]; 4 to 48 hours) [µg/mL] | Minimal inhibitory concentration(MIC), T. mentagrophytes B. 32663 ([8]; 4 to 48 hours) [µg/mL] | Minimal inhibitory concentration(MIC), C. albicans IFO. 1385 [9] [µg/mL] | Minimal inhibitory concentration (MIC) (Candida albicans C1-2) [µg/mL] | Minimal inhibitory concentration(MIC), Cry. neoformans IFM. 40092 ([10]; 4 to 48 hours) [µg/mL] | Minimal inhibitory concentration(MIC), C. tropicalis A. 13803 [11] [µg/mL] | Minimal inhibitory concentration(MIC), Cry. neoformans A. 34144 ([12]; 4 to 48 hours) [µg/mL] | Minimal inhibitory concentration(MIC), C. krusei K. 11655 (Candida krusei K. 11655) [µg/mL] | Minimal inhibitory concentration(MIC), A. niger A. 16404 ([13]; 4 to 48 hours) [µg/mL] | Minimal inhibitory concentration(MIC), C. albicans A. 10231 [5] [µg/mL] | Minimal inhibitory concentration(MIC), C. albicans C1-2 (Candida albicans C1-2) [µg/mL] | Structure (SMILES) | further results
1.56 | 100 | >100 | >100 | >100 | >100 | >100 | 100 | 12.5 | >100 | 0.78 | >100 | 1.56 | >100 | >100 | – | – | Cc1cccc(C(=C(F)OCC2COC(Cn3cncn3)(c3ccc(Cl)cc3Cl)O2)C(F)(F)F)c1 (mixture of isomers) [Ex. 80] | –
– | – | – | – | 6.25 | – | – | – | – | 6.25 | – | – | – | – | – | – | – | FC(OCC1COC(Cn2ccnc2)(c2ccc(Cl)cc2Cl)O1)=C(c1cc(Cl)cc(Cl)c1)C(F)(F)F (mixture of isomers) [Ex. 34] | Minimal inhibitory concentration (MIC) ([1]; Cry. neoformans B. 42419, RPMI-1640, 35° C.): 1.56 µg/mL; Minimal inhibitory concentration (MIC) ([2]; T. mentagrophytes A. 9129, RPMI-1640, 35° C., 4 to 48 hours): 1.56 µg/mL; Minimal inhibitory concentration (MIC) ([3]; C. pseudotropicalis K. 11658, RPMI-1640, 35° C.): 12.5 µg/mL; Minimal inhibitory concentration (MIC) ([4]; T. glabrata B. 16205, RPMI-1640, 35° C.): 6.25 µg/mL; Minimal inhibitory concentration (MIC) ([6]; C. parapsitosis A. 7330, RPMI-1640, 35° C.): 12.5 µg/mL; Minimal inhibitory concentration (MIC) ([7]; A furnigatus B. 19119, RPMI-1640, 35° C., 4 to 48 hours): 3.13 µg/mL; Minimal inhibitory concentration (MIC) ([8]; T. mentagrophytes B. 32663, RPMI-1640, 35° C., 4 to 48 hours): 0.78 µg/mL; Minimal inhibitory concentration (MIC) ([9]; C. albicans IFO. 1385, RPMI-1640, 35° C.): 0.39 µg/mL; Minimal inhibitory concentration (MIC) ([10]; Cry. neoformans IFM. 40092, RPMI-1640, 35° C., 4 to 48 hours): 0.39 µg/mL; Minimal inhibitory concentration (MIC) ([11]; C. tropicalis A. 13803, RPMI-1640, 35° C.): 12.5 µg/mL; Minimal inhibitory concentration (MIC) ([12]; Cry. neoformans A. 34144, RPMI-1640, 35° C., 4 to 48 hours): 1.56 µg/mL; Minimal inhibitory concentration (MIC) (Candida krusei K. 11655; C. krusei K. 11655, RPMI-1640, 35° C.): 25.0 µg/mL; Minimal inhibitory concentration (MIC) ([13]; A. niger A. 16404, RPMI-1640, 35° C., 4 to 48 hours): 6.25 µg/mL
3.13 | – | 6.25 | 100 | – | 3.13 | – | – | 3.13 | – | – | >100 | – | 6.25 | – | >100 | >100 | FC(=C(c1ccc(C(F)(F)F)cc1)C(F)(F)F)N1CCN(c2ccc(OCC3COC(Cn4ccnc4)(c4ccc(F)cc4F)O3)cc2)CC1 (mixture of isomers) [Ex. 142] | Minimal inhibitory concentration(MIC), T. mentagrophytes A. 9129 [2]: 12.5 µg/mL; Minimal inhibitory concentration(MIC), A furnigatus B. 19119 [7]: 50.0 µg/mL; Minimal inhibitory concentration(MIC), T. mentagrophytes B. 32663 [8]: 1.56 µg/mL; Minimal inhibitory concentration(MIC), Cry. neoformans IFM. 40092 [10]: 0.39 µg/mL; Minimal inhibitory concentration(MIC), Cry. neoformans A. 34144 [12]: 3.13 µg/mL; Minimal inhibitory concentration(MIC), A. niger A. 16404 [13]: 100 µg/mL
3.13 | 25.0 | >100 | 50.0 | – | >100 | >100 | 12.5 | 3.13 | – | 0.78 | >100 | 3.13 | >100 | >100 | 25.0 | 50.0 | FC(=Cc1ccc(F)cc1)Oc1ccc(OCC2COC(Cn3ccnc3)(c3ccc(Cl)cc3Cl)O2)cc1 (mixture of isomers) [Ex. 92] | –
